Measurements: ChEMBL document CHEMBL1201862, “PubChem BioAssay data set” (2004)
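Each compound was tested at five concentrations against cells in 96-well plates for 48 hours. Here, GI50 denotes the concentration required for 50% inhibition of growth.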 The source made the active and inactive calls. No stated cut-off is given here; in the data, active = GI50 up to about 1.1 µM and inactive = higher.

Tests used:
Assay in all cases: NCI anticancer screen, dose series, 48 h
TK-10 = test system: TK-10
IGROV-1 = test system: IGROV-1
UACC-257 = test system: UACC-257
HCT-116 = test system: HCT-116
K562 = test system: K562
UACC-62 = test system: UACC-62
SR = test system: SR
UO-31 = test system: UO-31
SK-MEL-28 = test system: SK-MEL-28
COLO 205 = test system: COLO 205
OVCAR-3 = test system: OVCAR-3
SNB-75 = test system: SNB-75
NCI-H522 = test system: NCI-H522
MOLT-4 = test system: MOLT-4
RXF 393 = test system: RXF 393
MDA-N = test system: MDA-N
NCI/ADR-RES = test system: NCI/ADR-RES
MDA-MB-231 = test system: MDA-MB-231

Compound | GI50 (TK-10) | GI50 (IGROV-1) | GI50 (UACC-257) | GI50 (HCT-116) | GI50 (K562) | GI50 (UACC-62) | GI50 (SR) | GI50 (UO-31) | GI50 (SK-MEL-28) | GI50 (COLO 205) | GI50 (OVCAR-3) | GI50 (SNB-75) | GI50 (NCI-H522) | GI50 (MOLT-4) | GI50 (RXF 393) | GI50 (MDA-N) | GI50 (NCI/ADR-RES) | GI50 (MDA-MB-231)
COc1cc(C(C)c2cc3c(cc2OCCN)OCO3)cc(OC)c1OC (centres undefined) | 73.5 µM (inactive) | > 100 µM (inactive) | 6.7 µM (inactive) | > 100 µM (inactive) | > 100 µM (inactive) | 35.5 µM (inactive) | 40.4 µM (inactive) | 50.8 µM (inactive) | 28.2 µM (inactive) | > 100 µM (inactive) | > 100 µM (inactive) | 18.5 µM (inactive) | 78.5 µM (inactive) | 10.9 µM (inactive) | 21.8 µM (inactive) |  |  | 
CN(CCc1ccccn1)c1nc(=[N+](C)C)ss1 | > 100 µM (inactive) | > 100 µM (inactive) | > 100 µM (inactive) |  | > 100 µM (inactive) | 64.1 µM (inactive) |  | > 100 µM (inactive) | > 100 µM (inactive) | > 100 µM (inactive) | 66.8 µM (inactive) | > 100 µM (inactive) | 8.02 µM (inactive) | > 100 µM (inactive) | > 100 µM (inactive) |  |  | 
CCCCCCCCCC[C@@H](O)[C@@H]1CC[C@H]([C@H]2CC[C@@H]([C@@H](O)CCCCCCCCCC[C@H]3CC(CC(C)=O)C(=O)O3)O2)O1 (some centres undefined) | 12.6 µM (inactive) | 12.8 µM (inactive) | 0.955 µM (active) | 1.18 µM (inactive) | < 0.01 µM (active) | 10.7 µM (inactive) |  | 1.08 µM (active) | 9.35 µM (inactive) | 13.4 µM (inactive) | 0.171 µM (active) | 12 µM (inactive) | 0.0324 µM (active) | 1.67 µM (inactive) |  |  |  | 
N=C(N)Cn1cnc2ccccc21 | > 100 µM (inactive) | > 100 µM (inactive) | > 100 µM (inactive) |  | > 100 µM (inactive) | > 100 µM (inactive) |  | > 100 µM (inactive) | > 100 µM (inactive) | > 100 µM (inactive) | > 100 µM (inactive) | > 100 µM (inactive) | > 100 µM (inactive) | > 100 µM (inactive) | > 100 µM (inactive) |  |  | 
Cn1c(C2CCCc3c2c2ccccc2n3C)cc2ccccc21 (centres undefined) | > 318 µM (inactive) | 31.6 µM (inactive) | 90.2 µM (inactive) | 142 µM (inactive) | 74 µM (inactive) | 35.8 µM (inactive) | 71.9 µM (inactive) |  | 114 µM (inactive) | 140 µM (inactive) | 36.2 µM (inactive) |  | 40.4 µM (inactive) | 89.5 µM (inactive) | 95.1 µM (inactive) |  |  | 
C=CCN1C(=O)C(=O)N(CC=C)C(=O)C1=O | > 100 µM (inactive) | > 100 µM (inactive) | > 100 µM (inactive) | > 100 µM (inactive) | > 100 µM (inactive) | > 100 µM (inactive) | > 100 µM (inactive) | > 100 µM (inactive) |  | > 100 µM (inactive) | > 100 µM (inactive) | > 100 µM (inactive) | > 100 µM (inactive) | > 100 µM (inactive) | > 100 µM (inactive) |  |  | 
COC(=O)/C(C#N)=C1\CCC(O)N1 (centres undefined) | > 100 µM (inactive) | > 100 µM (inactive) | > 100 µM (inactive) | > 100 µM (inactive) | > 100 µM (inactive) | > 100 µM (inactive) | > 100 µM (inactive) | > 100 µM (inactive) | > 100 µM (inactive) | > 100 µM (inactive) | > 100 µM (inactive) | > 100 µM (inactive) | > 100 µM (inactive) | > 100 µM (inactive) | > 100 µM (inactive) |  |  | 
C/C(=N/NC(N)=S)C(CN(C)C)C(C1=C(O)c2ccccc2OC1)c1ccccc1 (centres undefined) | > 100 µM (inactive) | > 100 µM (inactive) | > 100 µM (inactive) | > 100 µM (inactive) | > 100 µM (inactive) | > 100 µM (inactive) | > 100 µM (inactive) | > 100 µM (inactive) | > 100 µM (inactive) | > 100 µM (inactive) | > 100 µM (inactive) | > 100 µM (inactive) | > 100 µM (inactive) | > 100 µM (inactive) | > 100 µM (inactive) |  |  | 
O=C(O)C1CCC(=O)N1C(=O)C(Cl)c1ccccc1 (centres undefined) | > 100 µM (inactive) | > 100 µM (inactive) | > 100 µM (inactive) | > 100 µM (inactive) | > 100 µM (inactive) | > 100 µM (inactive) |  | > 100 µM (inactive) | > 100 µM (inactive) | > 100 µM (inactive) | > 100 µM (inactive) | > 100 µM (inactive) | > 100 µM (inactive) | > 100 µM (inactive) |  |  |  | 
COc1cc2ccnc([C@@H](OC(=O)c3ccccc3)c3ccc(OC)c(OC)c3OC)c2cc1OC | 75.5 µM (inactive) | > 100 µM (inactive) | > 100 µM (inactive) | 33.9 µM (inactive) | 26.7 µM (inactive) | 56.4 µM (inactive) |  | 18.9 µM (inactive) | 59.6 µM (inactive) | 48.5 µM (inactive) | 27.8 µM (inactive) | 21.5 µM (inactive) | 27.8 µM (inactive) | 41.6 µM (inactive) | 26.9 µM (inactive) |  |  | 
Cc1c(C(=O)C/C(=N\O)C(=O)Nc2cc(Cl)c(Cl)cc2Cl)[n+]([O-])c2ccccc2[n+]1[O-] | 29.2 µM (inactive) | 3.71 µM (inactive) | 7.85 µM (inactive) | 4.85 µM (inactive) | 25.9 µM (inactive) | 4.57 µM (inactive) | 24.2 µM (inactive) | 24.3 µM (inactive) | 22.4 µM (inactive) | 2.92 µM (inactive) | 2.37 µM (inactive) | 33.2 µM (inactive) | 3.96 µM (inactive) | 13.3 µM (inactive) | 22.5 µM (inactive) |  |  | 
CC/N=C(/C#N)NCC | > 100 µM (inactive) | > 100 µM (inactive) | 55.3 µM (inactive) | > 100 µM (inactive) | > 100 µM (inactive) | > 100 µM (inactive) | > 100 µM (inactive) | > 100 µM (inactive) | > 100 µM (inactive) | 99.3 µM (inactive) | > 100 µM (inactive) | > 100 µM (inactive) | > 100 µM (inactive) | > 100 µM (inactive) |  |  |  | 
Cc1c2c(ccc3ccccc32)c[n+]2ccccc12 | > 100 µM (inactive) |  | 10.2 µM (inactive) | 21.8 µM (inactive) | 11.6 µM (inactive) |  | 4.16 µM (inactive) | 20.9 µM (inactive) | 15.7 µM (inactive) | 13 µM (inactive) | 2.27 µM (inactive) | 4.21 µM (inactive) | 4.79 µM (inactive) | 6.59 µM (inactive) |  |  |  | 
CCCCCCCCCCCC(=O)CC(=O)c1c(O)cccc1O | 24.9 µM (inactive) | 18.6 µM (inactive) | 17.5 µM (inactive) | 16.6 µM (inactive) | 26.9 µM (inactive) | 29.4 µM (inactive) | 19.4 µM (inactive) | 14.5 µM (inactive) | 21.4 µM (inactive) | 17.3 µM (inactive) | 19.8 µM (inactive) | 19.4 µM (inactive) | 22.2 µM (inactive) | 19.7 µM (inactive) | 17.7 µM (inactive) |  |  | 
N=c1c2ccccc2sc2nc3ccccc3n12 | > 100 µM (inactive) | > 100 µM (inactive) | > 100 µM (inactive) |  | > 100 µM (inactive) | > 100 µM (inactive) | > 100 µM (inactive) | > 100 µM (inactive) | > 100 µM (inactive) | > 100 µM (inactive) |  |  | 71.3 µM (inactive) | > 100 µM (inactive) | > 100 µM (inactive) |  |  | 
Nc1ccc2n[se]nc2c1 | 23.8 µM (inactive) | > 100 µM (inactive) | > 100 µM (inactive) | > 100 µM (inactive) | > 100 µM (inactive) | > 100 µM (inactive) | > 100 µM (inactive) | > 100 µM (inactive) | > 100 µM (inactive) |  |  | > 100 µM (inactive) |  | > 100 µM (inactive) | > 100 µM (inactive) |  |  | 
OCCSCC/C(=N\N=C(/CCSCCO)c1ccccc1)c1ccccc1 | > 100 µM (inactive) | > 100 µM (inactive) | > 100 µM (inactive) |  | 29.9 µM (inactive) | > 100 µM (inactive) |  | 91.4 µM (inactive) | > 100 µM (inactive) | > 100 µM (inactive) | > 100 µM (inactive) |  |  | 77.4 µM (inactive) | 36.2 µM (inactive) |  |  | 
CCOC(=O)c1c(C)cc(=O)n2c1[nH]c1ccccc12 | 99.3 µM (inactive) | > 100 µM (inactive) | > 100 µM (inactive) | 57.1 µM (inactive) | 50.9 µM (inactive) | > 100 µM (inactive) |  | > 100 µM (inactive) | > 100 µM (inactive) | > 100 µM (inactive) | > 100 µM (inactive) |  |  | > 100 µM (inactive) | > 100 µM (inactive) | 64 µM (inactive) | > 100 µM (inactive) | 36.6 µM (inactive)
COc1ccc(N2C(=O)C3c4[nH]c5ccc(OC)cc5c4C4CCC(C(C)(C)C)CC4C3C2=O)cc1 (centres undefined) | 33.3 µM (inactive) | 51.2 µM (inactive) | 55.2 µM (inactive) | 10.5 µM (inactive) | 23.1 µM (inactive) | 27.2 µM (inactive) | 17.4 µM (inactive) | > 100 µM (inactive) | 23.2 µM (inactive) | 12.3 µM (inactive) | 92.3 µM (inactive) | 12.3 µM (inactive) | 20.7 µM (inactive) | 28.6 µM (inactive) | 16.1 µM (inactive) |  |  | 
COc1ccc(C2[C@@H](Cl)C(=O)N2c2ccc(OC)cc2)cc1 (some centres undefined) | > 100 µM (inactive) | > 100 µM (inactive) | 46 µM (inactive) | 18.6 µM (inactive) | 19.5 µM (inactive) | 33.6 µM (inactive) | 40.5 µM (inactive) | 56.8 µM (inactive) | > 100 µM (inactive) | > 100 µM (inactive) | 93.1 µM (inactive) | 15.1 µM (inactive) | 36 µM (inactive) | 35.9 µM (inactive) | 22.4 µM (inactive) |  |  | 
